ChEMBL document CHEMBL3045948, “Design, synthesis, and potential CNS activity of some new bioactive 1-(4-substituted-phenyl)-3-(4-oxo-2-methyl-4H-quinazolin-3-yl)-urea” (Med Chem Res, 2011)
Activity calls are given as the source filed them. No cut-off for these calls is given here.

Experiments:
Mus musculus [1] = test: Anticonvulsant activity in ip dosed Mus musculus (mouse) assessed as protection against maximal electroshock-induced seizure measured after 0.5 hr; assay type: functional; conditions: read-out: MED
Mus musculus [2] = test: (§1) Neurotoxicity in ip dosed Mus musculus (mouse) after 4 hr by rotorod test; assay type: toxicity, organism-based; conditions: in vivo, 4 h
Mus musculus [3] = test: Anticonvulsant activity in ip dosed Mus musculus (mouse) assessed as protection against subcutaneous pentyleneterazole-induced seizure measured after 4 hr; assay type: functional; conditions: read-out: MED
Mus musculus [4] = test: Anticonvulsant activity in ip dosed Mus musculus (mouse) assessed as protection against maximal electroshock-induced seizure measured after 4 hr; assay type: functional; conditions: read-out: MED
Rattus norvegicus = test: CNS depressant activity in Rattus norvegicus Wistar (rat) assessed as immobility time at 100 mg/kg, ip measured after 60 min by forced swim test (reference value: 45.6 +/- 19.45 to 180.97 +/- 14.15 sec); assay type: functional; conditions: route intraperitoneal
Mus musculus [5] = test: (§2) Neurotoxicity in ip dosed Mus musculus (mouse) after 0.5 hr by rotorod test; assay type: toxicity, organism-based; conditions: in vivo, 0.5 h
Mus musculus [6] = test: Anticonvulsant activity in ip dosed Mus musculus (mouse) assessed as protection against subcutaneous pentyleneterazole-induced seizure measured after 0.5 hr; assay type: functional; conditions: read-out: MED
Mus musculus [7] = test: Anticonvulsant activity in Mus musculus (mouse) assessed as protection against subcutaneous pentyleneterazole-induced seizure at 300 mg/kg, ip measured after 4 hr; assay type: functional, organism-based; design: dose 300 mg/kg
Mus musculus [8] = test: Sedative-hypnotic activity in Mus musculus (mouse) assessed as inhibition of locomotory activity at 100 mg/kg, ip measured after 1 hr by actophotometer test; assay type: functional; conditions: route intraperitoneal
Mus musculus [9] = test: Anticonvulsant activity in Mus musculus (mouse) assessed as protection against maximal electroshock-induced seizure at 300 mg/kg, ip measured after 4 hr; assay type: functional, organism-based; design: dose 300 mg/kg
[10] = as §1; assay type: toxicity, organism-based; conditions: in vivo
[11] = as §2; assay type: toxicity, organism-based; conditions: in vivo
Mus musculus [12] = test: Anticonvulsant activity in Mus musculus (mouse) assessed as protection against maximal electroshock-induced seizure at 300 mg/kg, ip measured after 0.5 hr; assay type: functional, organism-based; design: dose 300 mg/kg
Mus musculus [13] = test: Anticonvulsant activity in Mus musculus (mouse) assessed as protection against subcutaneous pentyleneterazole-induced seizure at 300 mg/kg, ip measured after 0.5 hr; assay type: functional, organism-based; design: dose 300 mg/kg

Row | SMILES | minimal effective dose (Mus musculus [1]) [mg/kg] | MTC (Mus musculus [2]) [mg/kg] | minimal effective dose (Mus musculus [3]) [mg/kg] | minimal effective dose (Mus musculus [4]) [mg/kg] | Time (Rattus norvegicus) [s] | MTC (Mus musculus [5]) [mg/kg] | minimal effective dose (Mus musculus [6]) [mg/kg] | Activity (Mus musculus [7]) | inhibition in vivo at 100 mg/kg (Mus musculus [8]) [%] | Activity (Mus musculus [9]) | MTD at 4 h [10] [mg/kg] | MTD at 0.5 h [11] [mg/kg] | Activity (Mus musculus [12]) | Activity (Mus musculus [13])
1 | NC(=O)N1c2ccccc2C=Cc2ccccc21 [CARBAMAZEPINE] | 30 | 300 | 300 | 100 | 240.3 | 100 | 100 |  |  |  |  |  |  | 
2 | Cc1nc2ccccc2c(=O)n1NC(=O)Nc1ccc(Cl)cc1 | 300 | 300 |  |  | 204.7 | 300 | 300 | inactive | 48 | inactive |  |  |  | 
3 | Cc1ccc(NC(=O)Nn2c(C)nc3ccccc3c2=O)cc1 |  |  |  |  | 210.29 |  |  | inactive | 52 | inactive | 300 | 300 | inactive | inactive
4 | CCOc1ccc(NC(=O)Nn2c(C)nc3ccccc3c2=O)cc1 |  | 300 |  |  | 198.29 | 300 |  | inactive | 45 | inactive |  |  | inactive | inactive
5 | COc1ccc(NC(=O)Nn2c(C)nc3ccccc3c2=O)cc1 |  |  |  |  | 202.29 |  |  | inactive | 42 | inactive | 300 | 300 | inactive | inactive
6 | CCC1(c2ccccc2)C(=O)NC(=O)NC1=O [PHENOBARBITAL] | 100 | 300 | 300 | 30 |  | 100 | 30 |  |  |  |  |  |  | 
7 | Cc1cccc(NC(=O)Nn2c(C)nc3ccccc3c2=O)c1 |  |  |  |  | 218.29 |  |  | inactive | 51 | inactive | 300 | 300 | inactive | inactive
8 | Cc1nc2ccccc2c(=O)n1NC(=O)Nc1ccccc1 |  |  |  |  | 130.56 | 300 |  | inactive | 50 | inactive | 300 |  | inactive | inactive
9 | CCCC(CCC)C(=O)[O-].[Na+] [VALPROATE SODIUM] |  |  |  |  |  |  | 300 | inactive |  | inactive | 300 | 300 | inactive | 
10 | Cc1nc2ccccc2c(=O)n1NC(=O)Nc1ccc(I)cc1 |  |  |  |  | 194.05 |  |  | inactive | 53 | inactive | 300 | 300 | inactive | inactive
11 | Cc1nc2ccccc2c(=O)n1NC(=O)Nc1ccc(F)cc1 |  |  |  |  | 188.16 |  |  | inactive | 45 | inactive | 300 | 300 | inactive | inactive
12 | CCc1ccc(NC(=O)Nn2c(C)nc3ccccc3c2=O)cc1 | 300 |  |  | 300 | 208.29 |  | 300 | inactive | 53 |  | 300 | 300 |  | 
13 | Cc1nc2ccccc2c(=O)n1NC(=O)Nc1ccc([N+](=O)[O-])cc1 |  |  |  |  | 190.29 |  |  | inactive | 40 | inactive | 300 | 300 | inactive | inactive
14 | O=C1NC(=O)C(c2ccccc2)(c2ccccc2)N1 [PHENYTOIN] | 30 | 100 |  | 30 |  | 100 |  | inactive | 70 |  |  |  |  | inactive
15 | CCC1(C)CC(=O)NC1=O (stereo unspecified) [ETHOSUXIMIDE] |  |  |  |  |  |  | 300 | inactive |  | inactive |  |  | inactive | 
16 | Cc1ccccc1NC(=O)Nn1c(C)nc2ccccc2c1=O |  |  |  |  | 226.29 |  |  | inactive | 51 | inactive | 300 | 300 | inactive | inactive
17 | Cc1nc2ccccc2c(=O)n1NC(=O)Nc1ccc(Br)cc1 | 300 |  |  |  | 70.63 | 300 | 300 | inactive | 51 | inactive | 300 |  |  | 
